# Assay results published in ChEMBL document CHEMBL1135722, “Cysteine derivatives as inhibitors for carboxypeptidase A: synthesis and structure-activity relationships” (J Med Chem, 2002).
# Target: T1, Carboxypeptidase A1 (Bos taurus, UniProt P00730)
# T1 sequence (P00730 whole entry): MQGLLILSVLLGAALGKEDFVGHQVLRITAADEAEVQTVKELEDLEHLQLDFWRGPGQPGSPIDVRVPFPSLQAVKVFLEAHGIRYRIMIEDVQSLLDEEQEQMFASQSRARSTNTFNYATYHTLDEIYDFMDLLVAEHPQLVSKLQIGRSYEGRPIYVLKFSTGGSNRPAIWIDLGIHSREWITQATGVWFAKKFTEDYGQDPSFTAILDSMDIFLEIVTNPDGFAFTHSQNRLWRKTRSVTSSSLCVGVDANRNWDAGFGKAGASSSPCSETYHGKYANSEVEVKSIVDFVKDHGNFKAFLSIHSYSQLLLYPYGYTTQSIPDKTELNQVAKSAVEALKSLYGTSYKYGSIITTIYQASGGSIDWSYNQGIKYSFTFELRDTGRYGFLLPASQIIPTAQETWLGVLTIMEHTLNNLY
# Assay: Inhibition of bovine carboxypeptidase A (CPA) using hippuryl-L-phenylalanine (Hipp-L-Phe) as a substrate.
row,SMILES,Ki [nM]
1,O=C(O)C(CS)CCCCc1ccccc1 (stereo not given),1300
2,O=C(O)C(CS)NCc1cccc2ccccc12 (stereo not given),810
3,O=C(O)C(CS)NCC1CCCCC1 (stereo not given),9400
4,N[C@@H](CS)C(=O)O [CYSTEINE],350000
5,O=C(O)C(CS)CCCc1ccccc1 (stereo not given),1350
6,CC(C)NC(CS)C(=O)O (stereo not given),1100
7,O=C(O)C(CS)NCc1ccc2ccccc2c1 (stereo not given),> 500000
8,CC(C)CC(CS)C(=O)O (stereo not given),160
9,CC(C)N[C@@H](CS)C(=O)O,2900
10,CC(C)CNC(CS)C(=O)O (stereo not given),7500
11,CNC(CS)C(=O)O (stereo not given),2400
12,O=C(O)C(CS)CCc1ccccc1 (stereo not given),2100
13,O=C(O)C(CS)Cc1ccccc1 (stereo not given),10
14,CC(C)N[C@H](CS)C(=O)O,560
15,O=C(O)[C@H](CS)NCCc1ccccc1,610
16,N[C@H](CS)C(=O)O,2300
17,CN(Cc1ccccc1)C(CS)C(=O)O (stereo not given),12000
18,O=C(O)[C@H](CS)NC1CCCCC1,7900

# Next, values leading:
row,Ki [nM],SMILES
1,9600,O=C(O)C(CS)NC1CCCCC1 (stereo not given)
2,1300,O=C(O)C(CS)NCCCc1ccccc1 (stereo not given)
3,190,O=C(O)[C@@H](CS)NCc1ccccc1
4,5500,O=C(O)C(CS)Nc1ccccc1 (stereo not given)
5,850,COc1ccc(CNC(CS)C(=O)O)cc1 (stereo not given)
6,1400,CCNC(CS)C(=O)O (stereo not given)
7,65,O=C(O)C(CS)NCCc1ccccc1 (stereo not given)
8,5600,CCCNC(CS)C(=O)O (stereo not given)
9,2900,O=C(O)[C@@H](CS)NC1CCCCC1
10,270,O=C(O)C(CS)NCc1ccccc1 (stereo not given)
11,55,O=C(O)[C@@H](CS)NCCc1ccccc1
12,33000,O=C(O)[C@H](CS)NCc1ccccc1
